Entries after “also recorded” stand apart in the source; their conditions may differ.
Tests used:
[1] = tested on: endogenous ULK1; test: Immunoblot of endogenous ULK1 P-Ser555 in primary murine embryonic fibroblasts (MEFs); type: cell-based; details: wild-type vs AMPK-deficient, 2 mM AICAR for 1 h
[2] = tested on: ULK1; test: Tandem mass spectrometry (LC/MS/MS) of phosphorylation sites on myc-ULK1 from HEK293T cells; type: cell-based, human
Procedure: FIG. 7A is a diagram of all LC/MS/MS identified in vivo phosphorylation sites in human ULK1. Myc-ULK1 was transfected into human embryonic kidney (HEK)-293T cells, treated with 5 mM phenformin to reduce cellular ATP for 1 hour and immunoprecipitated with anti myc antibody. The IP was run out on SDS PAGE, stained with coomassie, and the band corresponding to myc-ULK1 was cut out, and isolated and subjected to tryptic digest and LC/MS/MS analysis. Three indicated sites matching the AMPK substrate motif were identified, all mapping to the serine-rich unstructured region between the N-terminal kinase domain and the conserved C-terminus that mediates ULK1 binding to its subunits Atg13 and FIP200.
FIG. 7B is a bar graph of quantitative mass spec spectrometry (MS/MS TIC ratio quantification) data showing that tryptic peptides containing Phospho5er555 and Phospho-5er637 of ULK1 are induced by treatment of HEK293T cells with 5 mM phenformin for 1 h.
Mass Spectrometry. Myc-ULK1 overexpressed in HEK293T cells was treated with vehicle or 5 mM phenformin for 1 hour, IP'd with anti myc antibody (Cell Signaling), run out on SDS-PAGE gel and coomassie stained. […] Peptide ions from AMPK predicted phosphorylation sites were also targeted in MS/MS mode for quantitative analyses. […]
Relative Quantification of Phosphorylation Sites. […]

[3] = tested on: ULK1; test: Immunoblot with phospho-specific antibodies against ULK1 Ser467 and Ser555 in transfected HEK293T cells; type: cell-based, human; details: HEK293T cells with myc-tagged ULK1, 1 mM phenformin for 1 h vs vehicle
Procedure: FIGS. 1A-1F show ULK1 is a conserved substrate of AMPK. (A) Clustal alignment of four conserved sites in ULK1 and two sites in ULK2 matching the optimal AMPK substrate motif. (B) ULK1 and GST or GST-14-3-3 expression vectors were transfected into human embryonic kidney (HEK)293T cells, and placed in media containing […] STO-609 (STO), vehicle (veh), or 5 mM phenformin (Phen) for 1 h. Cell lysates and GST pulldowns were immunoblotted as indicated. […] (D) HEK293T cells transfected with myc-tagged wild-type ULK1 or indicated Serine-to-alanine ULK1 mutants were treated with either vehicle or 1 mM phenformin for 1 h, or were co-transfected with a constitutively active AMPKα1 (aa1-312) mammalian expression vector (11). Proteins from lysates were immunoblotted with phospho-specific antibodies as indicated. […] Phosphorylation of myc-ULK1 detected by immunoblotting with indicated phospho-specific antibodies. […]
Cell lysis, immunoprecipitations, and mammalian autophagy analysis. […] Immunoprecipitated proteins were denatured by the addition of […] of sample buffer and boiling for 5 minutes, resolved by 8%-16% SDSPAGE, and analyzed by immunoblottina as described. […] Quantification of westerns blots was achieved using Kodak Multi Gage software and normalizing to the appropriate loading control (actin when comparing p62 or LC3, or total protein level when comparing phospho-specific antibodies). […]

[4] = tested on: T1, myc-tagged catalytically inactive (KI: K46I) ULK1
T1 sequence: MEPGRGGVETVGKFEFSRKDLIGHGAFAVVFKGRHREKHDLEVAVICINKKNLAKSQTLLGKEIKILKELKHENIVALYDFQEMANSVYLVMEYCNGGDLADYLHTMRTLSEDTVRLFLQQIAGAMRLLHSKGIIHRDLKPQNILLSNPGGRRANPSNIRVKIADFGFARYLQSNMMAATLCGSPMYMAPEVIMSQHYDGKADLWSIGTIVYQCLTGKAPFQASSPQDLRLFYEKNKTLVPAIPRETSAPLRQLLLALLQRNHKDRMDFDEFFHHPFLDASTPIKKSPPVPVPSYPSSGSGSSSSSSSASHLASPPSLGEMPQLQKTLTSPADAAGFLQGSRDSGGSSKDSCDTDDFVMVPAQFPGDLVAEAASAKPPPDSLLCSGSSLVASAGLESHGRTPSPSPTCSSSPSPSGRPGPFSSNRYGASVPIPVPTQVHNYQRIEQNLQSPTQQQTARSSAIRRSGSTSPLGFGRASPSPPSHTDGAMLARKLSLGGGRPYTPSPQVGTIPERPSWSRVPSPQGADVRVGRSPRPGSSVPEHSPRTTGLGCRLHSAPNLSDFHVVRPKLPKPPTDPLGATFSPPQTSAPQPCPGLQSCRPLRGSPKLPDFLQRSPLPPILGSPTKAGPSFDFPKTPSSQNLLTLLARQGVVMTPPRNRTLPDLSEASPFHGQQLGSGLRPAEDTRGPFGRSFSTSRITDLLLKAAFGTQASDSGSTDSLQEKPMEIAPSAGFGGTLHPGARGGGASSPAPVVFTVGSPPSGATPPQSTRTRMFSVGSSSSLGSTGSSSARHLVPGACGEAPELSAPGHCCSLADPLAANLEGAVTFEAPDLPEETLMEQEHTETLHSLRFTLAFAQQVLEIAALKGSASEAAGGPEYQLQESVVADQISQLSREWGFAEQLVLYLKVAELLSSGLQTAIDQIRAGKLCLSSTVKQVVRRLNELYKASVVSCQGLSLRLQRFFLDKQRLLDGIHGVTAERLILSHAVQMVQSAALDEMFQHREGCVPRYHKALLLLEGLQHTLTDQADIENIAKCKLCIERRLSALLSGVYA

[5] = target: myc-tagged wild-type raptor (UniProt Q8N122)
Chain of myc-tagged wild-type raptor (Q8N122 whole entry, looked up): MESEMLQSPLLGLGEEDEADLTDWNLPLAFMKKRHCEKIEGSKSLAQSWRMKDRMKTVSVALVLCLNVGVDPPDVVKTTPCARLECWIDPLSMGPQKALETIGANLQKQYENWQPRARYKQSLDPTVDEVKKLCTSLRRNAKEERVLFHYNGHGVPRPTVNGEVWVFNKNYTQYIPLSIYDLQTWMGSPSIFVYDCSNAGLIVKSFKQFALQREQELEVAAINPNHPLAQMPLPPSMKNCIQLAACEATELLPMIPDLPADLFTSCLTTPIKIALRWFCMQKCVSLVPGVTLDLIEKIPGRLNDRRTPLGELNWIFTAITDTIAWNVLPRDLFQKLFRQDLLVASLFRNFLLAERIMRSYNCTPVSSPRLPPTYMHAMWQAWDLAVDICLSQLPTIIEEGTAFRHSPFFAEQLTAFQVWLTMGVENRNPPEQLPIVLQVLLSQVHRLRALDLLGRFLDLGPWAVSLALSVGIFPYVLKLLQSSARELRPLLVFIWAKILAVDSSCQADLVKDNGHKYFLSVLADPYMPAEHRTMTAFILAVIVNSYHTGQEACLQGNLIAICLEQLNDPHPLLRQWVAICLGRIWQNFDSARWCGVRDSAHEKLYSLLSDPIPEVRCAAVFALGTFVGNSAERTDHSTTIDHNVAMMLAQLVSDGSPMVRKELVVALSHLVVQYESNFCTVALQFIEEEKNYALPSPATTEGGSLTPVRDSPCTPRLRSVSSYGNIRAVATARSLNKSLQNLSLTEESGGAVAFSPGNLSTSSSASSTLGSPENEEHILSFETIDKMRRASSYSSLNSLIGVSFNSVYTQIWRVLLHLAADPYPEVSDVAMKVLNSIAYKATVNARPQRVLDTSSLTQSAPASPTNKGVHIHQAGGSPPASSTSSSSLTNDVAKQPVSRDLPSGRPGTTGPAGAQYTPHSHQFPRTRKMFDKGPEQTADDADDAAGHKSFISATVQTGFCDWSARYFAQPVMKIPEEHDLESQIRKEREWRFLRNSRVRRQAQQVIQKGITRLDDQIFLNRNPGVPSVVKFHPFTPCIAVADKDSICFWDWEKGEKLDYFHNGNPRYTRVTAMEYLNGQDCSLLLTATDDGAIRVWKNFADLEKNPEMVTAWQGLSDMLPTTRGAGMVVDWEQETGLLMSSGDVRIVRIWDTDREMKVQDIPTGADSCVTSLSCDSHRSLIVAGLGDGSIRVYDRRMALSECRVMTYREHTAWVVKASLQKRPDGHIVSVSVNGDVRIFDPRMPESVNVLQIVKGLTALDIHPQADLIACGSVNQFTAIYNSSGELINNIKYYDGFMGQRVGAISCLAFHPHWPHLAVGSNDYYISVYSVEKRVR

[6] = tested on: endogenous ULK1; test: Immunoblot of endogenous ULK1 Ser555 phosphorylation in primary murine hepatocytes; type: cell-based; details: wild-type vs AMPK-deficient, 2 mM metformin for 2 h
Procedure: Data shown as mean+/−SEM. * p<0.01 (B) Primary hepatocytes derived from ULK1^+/+ or ULK1^+/− mice or AMPKa1^−/− a2^L/+ or AMPKa1^−/− a2^L/L as described in methods were placed in media containing 2 mM metformin (met) or vehicle (veh) for 2 h. Lysates were immunoblotted with the indicated antibodies.
Primary hepatocytes were isolated. Briefly, livers were perfused with Hank's balanced salt solution (HESS, KCI, 5.4 mM; KH2PO4, 0.45 mM; NaCl, 138 mM; NaHCO2, 4.2 mM; Na2HPO4, 0.34 mM; glucose, 5.5 mM; HEPES, 1 M; EGTA, 50 mM; CaCl2, 50 mM; pH 7.4). Livers were washed at a rate of 5 ml/min using the portal vein before collagenase (0.025%) was added. Cell viability was assessed by the trypan blue exclusion test and was always higher than 60%. […]
Cell lysis, immunoprecipitations, and mammalian autophagy analysis. […] Immunoprecipitated proteins were denatured by the addition of 20 pl of sample buffer and boiling for 5 minutes, resolved by 8%-16% SDSPAGE, and analyzed by immunoblottina as described. […] Quantification of westerns blots was achieved using Kodak Multi Gage software and normalizing to the appropriate loading control (actin when comparing p62 or LC3, or total protein level when comparing phospho-specific antibodies). […]

NC(=O)c1ncn([C@@H]2O[C@H](CO)[C@@H](O)[C@H]2O)c1N [AICAR]
phosphorylation of endogenous ULK1 on Ser555 [1]: phosphorylation of endogenous ULK1 was observed on Ser555 in an AMPK-dependent manner; also recorded: phosphorylated on Ser555 in an AMPK-dependent manner

[H]/N=C(/N)N/C(=N/[H])NCCc1ccccc1 [phenformin]
tryptic peptides containing Phospho-Ser555 and Phospho-Ser637 of ULK1, quantitative mass spectrometry (MS/MS TIC ratio quantification) ([2]; 5 mM phenformin for 1 h): induced
phosphorylation of ULK1 candidate AMPK sites Ser555, Thr574, Ser637 detected by tandem mass spectrometry ([2]; epitope-tagged ULK1, with or without 5 mM phenformin for 1 hour): all three were phosphorylated only after phenformin treatment
phosphorylation of ULK1 Ser467 and Ser555 (phospho-specific antibodies) [3]: Phosphorylation of both sites was induced

purified active AMPK heterotrimer (partially purified rat liver, Millipore cat #14-305)
in vitro kinase assay, 32P incorporation [4]: AMPK phosphorylated ULK1 to a greater extent than an established substrate, Raptor
in vitro kinase assay, 32P incorporation [5]: AMPK phosphorylated ULK1 to a greater extent than an established substrate, Raptor

CN(C)C(=N)N=C(N)N [metformin]
phosphorylation of endogenous ULK1 Ser555 [6]: Increased phosphorylation of endogenous ULK1 Ser555 was observed in wild-type but not AMPK-deficient hepatocytes

— US20160289651A1, “ULK1 COMPOSITIONS, INHIBITORS, SCREENING AND METHODS OF USE” (Salk Institute for Biological Studies, priority 2009, published 2016)
